Experimental data reported in publication PMC8041433 (Environmental Health Perspectives, 2021).
“And” between values parts separate entries of the source, which are not always exact repeats. Equal values may be shown once. Where a name gives a salt, the structure may show the parent alone. Read-outs that look alike come from different tables or passages of the source.

Legend:
[1] = target: AChE in neural stem cells (Homo sapiens, UniProt P22303); assay: cell-based
[2] = target: AChE in SH-SY5Y cells (Homo sapiens, UniProt P22303); assay: cell-based
Chain of AChE in SH-SY5Y cells (P22303 32-614): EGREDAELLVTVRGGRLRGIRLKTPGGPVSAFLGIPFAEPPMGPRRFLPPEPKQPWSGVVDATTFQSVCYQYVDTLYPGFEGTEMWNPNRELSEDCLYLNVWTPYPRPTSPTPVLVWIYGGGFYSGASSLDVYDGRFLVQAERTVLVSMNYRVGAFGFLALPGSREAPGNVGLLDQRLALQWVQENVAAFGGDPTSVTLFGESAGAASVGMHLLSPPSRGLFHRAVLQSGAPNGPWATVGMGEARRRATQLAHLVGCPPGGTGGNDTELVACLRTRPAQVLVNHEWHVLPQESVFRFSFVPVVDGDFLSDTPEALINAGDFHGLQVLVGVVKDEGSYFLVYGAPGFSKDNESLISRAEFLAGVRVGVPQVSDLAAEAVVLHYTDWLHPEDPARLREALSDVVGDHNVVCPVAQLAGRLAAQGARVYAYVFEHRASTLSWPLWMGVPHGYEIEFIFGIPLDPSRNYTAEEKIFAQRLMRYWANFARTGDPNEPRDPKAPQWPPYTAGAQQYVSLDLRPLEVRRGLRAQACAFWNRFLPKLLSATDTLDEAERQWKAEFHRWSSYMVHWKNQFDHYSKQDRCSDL

[3] = target: T1, recombinant human AChE (Homo sapiens, UniProt P22303); assay: biochemical; format: biochemical; conditions: for AC50: AC50 (uM)
T1 sequence (P22303 32-614): as above

[4] = target: T1, recombinant human AChE; assay: biochemical
[5] = target: AChE in SH-SY5Y spheroids (Homo sapiens, UniProt P22303); assay: cell-based; conditions: potency (IC50)
Chain of AChE in SH-SY5Y spheroids (P22303 32-614): as above

[6] = target: T1, recombinant human AChE
[7] = target: T1, recombinant human AChE; assay: biochemical; remark: listed apart in the source
[8] = target: AChE in neural stem cell spheroids (Homo sapiens, UniProt P22303); assay: cell-based; conditions: for IC50: potency (IC50)
Chain of AChE in neural stem cell spheroids (P22303 32-614): as above

[9] = target: T1, recombinant human AChE; assay: biochemical; remark: listed apart in the source
[10] = potency (IC50), SH-SY5Y cells monolayer
[11] = Neural stem cell spheroid (24 h)
[12] = Neural stem cell spheroid (48 h)
[13] = potency (IC50), Enzyme with microsomes
Wherever IR or R is given: key: Reversible (R); Irreversible (IR); ND, not detected in enzyme-based AChE inhibition assay from current study.

Chain of AChE in neural stem cells (P22303 32-614): as above

[H]/N=C(\N/C(=N/[H])NCCCCCCNC(=N)NC(=N)Nc1ccc(Cl)cc1)Nc1ccc(Cl)cc1 [Chlorhexidine diacetate, reference compound]
IC50 [1]: 32.5 µM
CC-v2 (curve classes) [2]: -2.1
IC50 ([2]; IC50 (uM)): 56.1 µM and 70.6 µM
IC50 [2, 10]: 70.9 µM
IR or R [3]: R
AC50 [3]: 78.5 µM
CC-v2 (curve classes) [4]: -2.1
Efficacy [4]: -106.259
IC50 ([4]; IC50 (uM)): 50 µM
IC50 ([4]; potency (IC50), Enzyme): 54.6 µM
IC50 ([5]; SH-SY5Y spheroids (24 h)): 36.1 µM
IC50 ([5]; SH-SY5Y spheroids (48 h)): 41 µM
CC-v2 (curve classes) [6]: 4
Efficacy [6]: 0
potency (IC50), Enzyme with microsomes [6]: Inactive
potency (IC50), Enzyme-based assay with heat-inactivated microsomes [7]: Inactive
IC50 [8, 11]: 8.31 µM
IC50 [8, 12]: 9.21 µM

CCCCOc1ccc(C(=O)CCN2CCCCC2)cc1 [Dyclonine HCl, reference compound]
IC50 [1]: 21.8 ± 2.5 µM
IC50 [2, 10]: 20.2 ± 2.57 µM
IR or R [3]: R
AC50 [3]: 27.3 µM (3×) and 30.6 µM (3×) and 19.3 µM and 34.3 µM
IC50 [9, 13]: 31 ± 6.49 µM
IC50 ([4]; potency (IC50), Enzyme): 20.9 ± 1.36 µM
IC50 ([5]; SH-SY5Y spheroids (24 h)): 17.4 ± 3.65 µM
IC50 ([5]; SH-SY5Y spheroids (48 h)): 23.5 ± 3.24 µM
IC50 [7]: 26.8 ± 10.1 µM
IC50 [8, 11]: 16.3 ± 7.64 µM
IC50 [8, 12]: 9.18 ± 9.47 µM

CNC(=O)Oc1cccc2ccccc12 [carbaryl]
reversibility of AChE inhibition (result in words) [3]: significant IC50 difference at 60 min

O=C(CCC1CCN(Cc2ccccc2)CC1)c1ccc2c(c1)NCCCC2.O=C(O)/C=C/C(=O)O [Zanapezil fumerate, reference compound]
CC-v2 (curve classes) [2]: -1.1
IR or R [3]: R
CC-v2 (curve classes) [4]: -1.1
Efficacy [4]: -97.056
CC-v2 (curve classes) [6]: -1.1
Efficacy [6]: -97.158

CN1C[C@H](CNC(=O)OCc2ccccc2)C[C@@H]2c3cccc4c3c(cn4C)C[C@H]21 [Metergoline, reference compound]
IC50 [1]: 13.2 ± 0.85 µM
IC50 ([2]; IC50 (uM)): 3.47 µM and 5.5 µM
IC50 [2, 10]: 4.85 µM
AC50 [3]: 21.7 µM and 12.2 µM (3×) and 13.7 µM and 27.3 µM and 9.68 µM (2×) and 10.9 µM
IC50 [9, 13]: 21.7 µM
IC50 ([4]; potency (IC50), Enzyme): 5.46 ± 1.98 µM
IC50 ([5]; SH-SY5Y spheroids (24 h)): 1.73 ± 0.75 µM
IC50 ([5]; SH-SY5Y spheroids (48 h)): 4.17 ± 0.27 µM
IC50 [7]: 20.9 ± 1.36 µM
IC50 [8, 11]: 5.79 ± 1.63 µM
IC50 [8, 12]: 5.8 ± 1.64 µM

CCc1ccc(C(=O)C(C)CN2CCCCC2)cc1.Cl (stereo not drawn) [Eperisone hydrochloride, reference compound]
IC50 [1]: 19.3 µM
CC-v2 (curve classes) [2]: -2.1
IC50 ([2]; IC50 (uM)): 15.5 µM
IC50 [2, 10]: 25.3 µM
IR or R [3]: R
AC50 [3]: 10.9 µM (3×) and 21.7 µM and 15.3 µM (2×) and 17.2 µM
IC50 [9, 13]: 38.7 µM
CC-v2 (curve classes) [4]: -2.2
Efficacy [4]: -46.815
IC50 ([4]; potency (IC50), Enzyme): 27.4 µM
CC-v2 (curve classes) [6]: 4
Efficacy [6]: 0
IC50 [7]: 40.1 ± 2.71 µM
IC50 [8, 11]: 15 µM
IC50 [8, 12]: 13.3 µM

O=C(O)CC[N+](=O)[O-] [3-Nitropropionic acid]
IC50 ([2]; IC50 (uM)): 8.94 µM and 11.2 µM and 2.24 µM
IC50 ([9]; IC50 (uM)): 71 µM
CC-v2 (curve classes) [4]: -2.1
Efficacy [4]: -85.687
IC50 ([4]; IC50 (uM)): 28.3 µM
CC-v2 (curve classes) [6]: -2.2
Efficacy [6]: -41.028

COc1cc2nc(N(C)CCCNC(=O)C3CCCO3)nc(N)c2cc1OC (stereo not drawn) [Alfuzosin hydrochloride, reference compound]
AC50 [3]: 14.7 µM (3×) and 13.1 µM and 7.35 µM and 9.25 µM and 10.4 µM (2×)

CCOP(=O)(OCC)Oc1nc(Cl)c(Cl)cc1Cl [Chlorpyrifos oxon, reference compound]
CC-v2 (curve classes) [2]: -1.1
reversibility of AChE inhibition (result in words) [3]: irreversibility
CC-v2 (curve classes) [4]: -1.1
Efficacy [4]: -95.546
CC-v2 (curve classes) [6]: -1.1
Efficacy [6]: -96.78

CN1CCCC(n2nc(Cc3ccc(Cl)cc3)c3ccccc3c2=O)CC1 (stereo not drawn) [Azelastine (hydrochloride), reference compound]
IC50 [1]: 22.6 µM
IC50 [2, 10]: 20.9 µM
IR or R [3]: R
AC50 [3]: 27.3 µM (3×) and 24.3 µM (2×) and 30.6 µM (2×)
IC50 [9, 13]: 27.4 µM
IC50 ([4]; potency (IC50), Enzyme): 25.4 µM
IC50 ([5]; SH-SY5Y spheroids (24 h)): 13.8 µM
IC50 ([5]; SH-SY5Y spheroids (48 h)): 19.3 µM
IC50 [7]: 36.6 ± 10.3 µM
potency (IC50), Neural stem cell spheroid (24 h) [8]: Inactive
IC50 [8, 12]: 4.45 µM

Nc1c2c(nc3ccccc13)CCCC2O.O=C(O)/C=C\C(=O)O (stereo not drawn) [Hydroxytacrine maleate, reference compound]
CC-v2 (curve classes) [2]: -1.1
IR or R [3]: R
CC-v2 (curve classes) [4]: -1.1
Efficacy [4]: -95.079
CC-v2 (curve classes) [6]: -2.1
Efficacy [6]: -93.06

CCOP(=S)(OCC)SCSC(C)(C)C [Terbufos]
IC50 [1]: 2.31 µM
potency (IC50), SH-SY5Y cells monolayer [2]: Inactive
IC50 ([2]; IC50 (uM)): 89.4 µM
IC50 ([9]; IC50 (uM)): 56.4 µM and 40.2 µM
IC50 [9, 13]: 4.27 µM
AChE inhibition (result in words) [4]: did not show effects
CC-v2 (curve classes) [4]: 4
Efficacy [4]: 0
potency (IC50), Enzyme [4]: Inactive
IC50 ([5]; SH-SY5Y spheroids (24 h)): 2.19 µM
IC50 ([5]; SH-SY5Y spheroids (48 h)): 35.4 µM
CC-v2 (curve classes) [6]: -2.1
potency (IC50), Enzyme-based assay with heat-inactivated microsomes [7]: Inactive
IC50 [8, 11]: 1.83 µM
IC50 [8, 12]: 2.75 µM
